Source: patent US11261186B2, “Biaryl derivative as GPR120 agonist” (LG CHEM, LTD., priority 2014, dated 2022)

Target: T1, hGPR120 (Homo sapiens, UniProt Q5NUL3)
T1 construct: expressed in transfected cells; host or cells: CHO-K1
T1 sequence (Q5NUL3 1-361): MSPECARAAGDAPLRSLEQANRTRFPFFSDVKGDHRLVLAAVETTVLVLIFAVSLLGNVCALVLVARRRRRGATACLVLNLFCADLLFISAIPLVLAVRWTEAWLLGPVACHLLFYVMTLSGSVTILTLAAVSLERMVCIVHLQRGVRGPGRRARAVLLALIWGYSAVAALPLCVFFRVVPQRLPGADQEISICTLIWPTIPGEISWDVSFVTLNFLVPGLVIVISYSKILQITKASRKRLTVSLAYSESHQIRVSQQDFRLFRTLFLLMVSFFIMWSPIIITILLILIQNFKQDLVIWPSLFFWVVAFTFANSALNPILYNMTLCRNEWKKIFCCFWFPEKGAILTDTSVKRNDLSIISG
Test: Measurement of Activity of GPR120 Agonist (Cell-Based Assay), Calcium 5 dye fluorescence
Details: CHO-K1 cells expressing Ga16 and hGPR120
Procedure, shortened: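 CHO-K1 cells co-expressing Gα16 and hGPR120 were seeded, cultured 18 h at 37 °C, then loaded 1 h with Calcium 5 dye. Serially diluted agonists (final 0.5% DMSO) were added and fluorescence read at Ex 485/Em 525 nm, expressed as percent relative to 1% DMSO-only wells.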

SMILES | EC50
Oc1cc(COc2c(F)cc(-c3cccnc3SC3CCCC3)cc2F)on1 [Example 65, 5-[[4-(2-cyclopentylsulfanyl-3-pyridyl)-2,6-difluoro-phenoxy]methyl]isoxazol-3-ol] | < 200 nM
Cc1cnc(OC2CCCC2)c(-c2cc(F)c(N(C)CCCC(=O)O)c(F)c2)c1 [Example 217, 4-{[4-(2-cyclopentyloxy-5-methyl-pyridin-3-yl)-2,6-difluoro-phenyl]-methyl-amino}-butyric acid] | < 200 nM
CC(C)Oc1ccnc(-c2cc(F)c(N3CCC(CC(=O)O)CC3)c(F)c2)n1 [Example 346, 2-[1-[2,6-difluoro-4-(4-isopropoxypyrimidin-2-yl)phenyl]-4-piperidyl]acetic acid] | < 200 nM
CCN(CC)c1cncc(-c2cc(F)c(N3CCC(CC(=O)O)C3)c(F)c2)n1 (stereo not drawn) [Example 506, 2-{1-[2,6-difluoro-4-(6-diethylamino-pyrazin-2-yl)phenyl]pyrrolidin-3-yl}acetic acid] | 200 to 2000 nM
Cc1ccc(OCC2CCC2)cc1-c1cc(F)c(N(C)CCCC(=O)O)c(F)c1 [Example 529, 4-[(5′-cyclobutylmethoxy-3,5-difluoro-2′-methyl-biphenyl-4-yl)-methyl-amino]-butyric acid] | 200 to 2000 nM
O=C(O)CCCOc1c(F)cc(-c2ccc(COCC3CC3)s2)cc1F [Example 565, 4-[4-(5-cyclopropylmethoxymethyl-thiophen-2-yl)-2,6-difluoro-phenoxy]-butanoic acid] | < 200 nM
O=C(O)CC1CN(c2c(F)cc(-c3cccc(OC4CCC4)n3)cc2F)C1 [Example 321, 2-[1-[4-[6-(cyclobutoxy)-2-pyridyl]-2,6-difluoro-phenyl]azetidin-3-yl]acetic acid] | < 200 nM
CCOc1nc(-c2cc(F)c(N3CCC(CC(=O)O)CC3)c(F)c2)sc1C [Example 368, {1-[4-(4-ethoxy-5-methyl-thiazol-2-yl)-2,6-difluoro-phenyl]-piperidin-4-yl}acetic acid] | 200 to 2000 nM
O=C(O)CCCCc1c(F)cc(-c2cccnc2OCC2CC2)cc1F [Example 252, 5-[4-(2-cyclopropylmethoxy-pyridin-3-yl)-2,6-difluoro-phenyl]-pentanoic acid] | < 200 nM
CC(C)Sc1ncccc1-c1cc(F)c2c(c1)CCC(CCC(=O)O)S2 (stereo not drawn) [Example 440, 3-[8-fluoro-6-(2-isopropylsulfanyl-3-pyridyl)thiochroman-2-yl]propanoic acid] | 200 to 2000 nM
O=C(O)CCC1CCc2cc(-c3cccnc3OCC3CC3)ccc2O1 (stereo not drawn) [Example 276, 3-[6-(2-cyclopropylmethoxy-pyridin-3-yl)-chroman-2-yl]-propionic acid] | 200 to 2000 nM
Cc1cc(Oc2ccc(F)cc2)nc(-c2cc(F)c(N3CCC(CC(=O)O)CC3)c(F)c2)n1 [Example 515, 2-[1-[2,6-difluoro-4-[4-(4-fluorophenoxy)-6-methyl-pyrimidin-2-yl]phenyl]-4-piperidyl]acetic acid] | 200 to 2000 nM
O=C(O)CC1CCN(c2c(F)cc(-c3nc(OC4CCC4)cc(C(F)(F)F)n3)cc2F)CC1 [Example 617, {1-[4-(4-cyclobutoxy-6-trifluoromethyl-pyrimidin-2-yl)-2,6-difluoro-phenyl]-piperidin-4-yl}-acetic acid] | > 20000 nM
CC(C)Nc1cncc(-c2cc(F)c(N3CCC(CC(=O)O)C3)c(F)c2)n1 (stereo not drawn) [Example 505, 2-{1-[2,6-difluoro-4-(6-isopropylamino-pyrazin-2-yl)phenyl]pyrrolidin-3-yl}acetic acid] | 200 to 2000 nM
O=C(O)COCC(F)(F)c1ccc(-c2cccnc2OC2CCCC2)cc1 [Example 172, {2-[4-(2-cyclopentyloxy-pyridin-3-yl)-phenyl]-2,2-difluoro-ethoxy}-acetic acid] | 2000 to 20000 nM
Cc1nc(COCC2CC2)c(-c2cc(F)c(OCCCC(=O)O)c(F)c2)s1 [Example 568, 4-[4-(4-cyclopropylmethoxymethyl-2-methyl-thiazol-5-yl)-2,6-difluoro-phenoxy]-butanoic acid] | 2000 to 20000 nM
COc1ncccc1-c1cc(F)c(N(C)CCCC(=O)O)c(F)c1 [Example 219, 4-{[2,6-difluoro-4-(2-methoxy-pyridin-3-yl)-phenyl]-methyl-amino}-butyric acid] | 2000 to 20000 nM
CCCOc1ccnc(-c2cc(F)c(N3CCC(CC(=O)O)C3)c(F)c2)n1 (stereo not drawn) [Example 499, 2-{1-[2,6-difluoro-4-(4-propoxy-pyrimidin-2-yl)phenyl]pyrrolidin-3-yl}acetic acid] | < 200 nM
CC(C)Sc1ncccc1-c1ccc2nc(CCC(=O)O)ccc2c1 [Example 1, 3-[6-(2-isopropylsulfanyl-pyridin-3-yl)-quinolin-2-yl]-propionic acid] | 200 to 2000 nM
CN(CCCC(=O)O)c1c(F)cc(-c2cccc(N3CCCC3)c2)cc1F [Example 201, 4-[(3,5-difluoro-3′-pyrrolidin-1-yl-biphenyl-4-yl)-methyl-amino]-butyric acid] | 200 to 2000 nM

SMILES | EC50
O=C(O)CC1CCN(c2c(F)cc(-c3cccc(OCC(F)(F)F)n3)cc2F)CC1 [Example 315, 2-[1-[2,6-difluoro-4-[6-(2,2,2-trifluoroethoxy)-2-pyridyl]phenyl]-4-piperidyl]acetic acid] | 200 to 2000 nM
CC(C)Nc1cncc(-c2cc(F)c(N3CCC(CC(=O)O)CC3)c(F)c2)n1 [Example 354, 2-[1-[2,6-difluoro-4-[6-(isopropylamino)pyrazin-2-yl]phenyl]-4-piperidyl]acetic acid] | 200 to 2000 nM
C[C@H](CCCC(=O)O)c1c(F)cc(-c2cccnc2SC2CCC2)cc1F [Example 227, (R)-5-[4-(2-cyclobutylsulfanyl-pyridin-3-yl)-2,6-difluoro-phenyl]-hexanoic acid] | < 200 nM
CCOc1cncc(-c2cc(F)c(OCCCC(=O)O)c(Cl)c2)n1 [Example 437, 4-[2-chloro-4-(6-ethoxy-pyrazin-2-yl)-6-fluoro-phenoxy]-butyric acid] | < 200 nM
CN(CCCC(=O)O)c1c(F)cc(-c2cccc3c2OC2(CCCC2)C3)cc1F [Example 263, 4-(2,6-difluoro-N-methyl-4-spiro[3H-benzofuran-2,1′-cyclopentan]-7-yl-anilino)-butyric acid] | < 200 nM
CCCOc1cccc(-c2cc(F)c(OCCCC(=O)O)c(F)c2)c1OCCC [Example 454, 4-[4-(2,3-dipropoxyphenyl)-2,6-difluoro-phenoxy]butanoic acid] | < 200 nM
O=C(O)CCCOc1c(F)cc(-c2cccc(SC3CCC3)n2)cc1Cl [Example 403, 4-[2-chloro-4-(6-cyclobutylsulfanyl-pyridin-2-yl)-6-fluoro-phenoxy]-butyric acid] | < 200 nM
CCCSc1ncccc1-c1cc(F)c(C(C)CCCC(=O)O)c(F)c1 (stereo not drawn) [Example 43, 5-[2,6-difluoro-4-(2-propylsulfanyl-3-pyridyl)-phenyl]hexanoic acid] | < 200 nM
Oc1cc(COc2c(F)cc(-c3cccnc3OC3CCC3)cc2F)on1 [Example 76, 5-[[4-[2-(cyclobutoxy)-3-pyridyl]-2,6-difluoro-phenoxy]methyl]isoxazol-3-ol] | < 200 nM
CC(C)Sc1cccc(-c2ccc(C(F)(F)CCCC(=O)O)cc2)n1 [Example 192, 5,5-difluoro-5-[4-(6-isopropylsulfanyl-pyridin-2-yl)-phenyl]-pentanoic acid] | < 200 nM
CN(CCCC(=O)O)c1c(F)cc(-c2cccnc2SC2CCC2)cc1F [Example 195, 4-{[4-(2-cyclobutylsulfanyl-pyridin-3-yl)-2,6-difluoro-phenyl]-methyl-amino}-butyric acid] | < 200 nM
O=C(O)CC1CCN(c2c(F)cc(-c3nc(OCC4CC4)cs3)cc2F)CC1 [Example 377, {1-[4-(4-cyclopropylmethoxy-thiazol-2-yl)-2,6-difluoro-phenyl]-piperidin-4-yl}acetic acid] | < 200 nM
CC(CCCC(=O)O)c1c(F)cc(-c2cccc3c2OC(F)(F)O3)cc1F (stereo not drawn) [Example 171, 5-[4-(2,2-difluoro-benzo[1,3]dioxol-4-yl)-2,6-difluoro-phenyl]-hexanoic acid] | < 200 nM
O=C(O)CCCOc1c(F)cc(-c2ccnc(OC3CCC3)n2)cc1F [Example 421, 4-[4-(2-cyclobutoxy-pyrimidin-4-yl)-2,6-difluoro-phenoxy]-butyric acid] | < 200 nM
O=C(O)CCCOc1c(F)cc(-n2ncc3ccc(OC4CCC4)cc32)cc1Cl [Example 483, 4-[2-chloro-4-[6-(cyclobutoxy)indazol-1-yl]-6-fluoro-phenoxy]butanoic acid] | < 200 nM
O=C(O)CC1CCN(c2c(F)cc(-c3csc(OCC4CC4)n3)cc2F)C1 (stereo not drawn) [Example 583, {1-[4-(2-cyclopropylmethoxy-thiazol-4-yl)-2,6-difluoro-phenyl]-pyrrolidin-3-yl}-acetic acid] | 200 to 2000 nM
O=C(O)CCCOc1ccc(-c2cc(F)cc(OC3CCC3)c2)cc1F [Example 536, 4-(5′-cyclobutoxy-3,3′-difluoro-biphenyl-4-yloxy)-butyric acid] | < 200 nM
CC(C)Oc1cccc(-c2ccc3c(c2)CCC(CCC(=O)O)O3)n1 (stereo not drawn) [Example 452, 3-[6-(6-isopropoxy-2-pyridyl)chroman-2-yl]propanoic acid] | < 200 nM
O=C(O)CC1CCN(c2c(F)cc(-c3ncc(F)c(OC4CCC4)n3)cc2F)CC1 [Example 371, 2-[1-[4-[4-(cyclobutoxy)-5-fluoro-pyrimidin-2-yl]-2,6-difluoro-phenyl]-4-piperidyl]acetic acid] | < 200 nM
